Results from article PMC6094398, “New tools for evaluating protein tyrosine sulfation: tyrosylprotein sulfotransferases (TPSTs) are novel targets for RAF protein kinase inhibitors” (Biochemical Journal, 2018).
Several values for one entry are separate records, joined by “and”; a condition that tells them apart may be missing. Identical values can stand only once. Like-named read-outs stand apart in the source and are kept apart here.

Key:
human TPST1 [1] = target: T1, human TPST1 (Homo sapiens, UniProt O60507); assay: EZ Reader II microfluidic mobility-shift CC4-tide sulfation assay, TPST1; type: biochemical; settings: for IC50 / TPST1 inhibition at 400 μM: 10 µM PAPS; for inhibition at 20 µM: read-out: TPST1 enzyme inhibition, PKIS screen; for TPST1 inhibition at 400 μM: Fig 8A, inhibitor 400 µM; for Sensitivity of TPST1 inhibition to the concentration of PAPS: increasing PAPS, fixed 20 µM PAP or 100 µM ATP, CoA, dephospho-CoA
T1 construct: human TPST1 (residues Lys43–Leu360) and TPST2 (residues Gly43–Leu359) enzymes lacking the transmembrane domains; made in house; host or cells: E. coli BL21 (DE3) pLysS
T1 sequence (O60507 43-360): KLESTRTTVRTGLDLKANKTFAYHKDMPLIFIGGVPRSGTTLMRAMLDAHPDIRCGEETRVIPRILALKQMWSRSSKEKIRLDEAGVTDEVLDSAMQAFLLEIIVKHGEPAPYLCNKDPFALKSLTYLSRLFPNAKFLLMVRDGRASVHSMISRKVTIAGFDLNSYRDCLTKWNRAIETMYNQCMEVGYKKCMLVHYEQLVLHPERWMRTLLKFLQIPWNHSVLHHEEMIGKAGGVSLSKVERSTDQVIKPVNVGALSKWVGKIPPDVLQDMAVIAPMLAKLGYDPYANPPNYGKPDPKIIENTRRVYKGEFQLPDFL

human TPST1 [2] = target: T1, human TPST1; assay: Differential scanning fluorimetry (thermal shift) assay with TPST1; type: binding; settings: TPST1 5 µM; for Thermal shift of TPST1 in the presence of Mg2+ ions (in words) / Thermal shift of TPST1 (in words) / ΔTm TPST1: DSF; for Thermal shift of TPST1 in the presence of Mg2+ ions (in words): 0.5 mM nucleotide + 10 mM MgCl2; for Thermal shift of TPST1 (in words) / ΔTm TPST1: 0.5 mM nucleotide; for Thermal shift of TPST1 (in words): panel of nucleotide-based cofactors; for ΔTm TPST1: relative to buffer control
human TPST2 = target: T2, human TPST2 (Homo sapiens, UniProt O60704); assay: Differential scanning fluorimetry (thermal shift) assay with TPST2; type: binding; settings: DSF, TPST2 5 µM; for Thermal shift of TPST2 in the presence of Mg2+ ions (in words): 0.5 mM nucleotide + 10 mM MgCl2; for Thermal shift of TPST2 (in words): 0.5 mM nucleotide, panel of nucleotide-based cofactors
T2 construct: TPST2 (residues Gly43–Leu359) enzymes lacking the transmembrane domains; made in house; host or cells: E. coli BL21 (DE3) pLysS
T2 sequence (O60704 43-359): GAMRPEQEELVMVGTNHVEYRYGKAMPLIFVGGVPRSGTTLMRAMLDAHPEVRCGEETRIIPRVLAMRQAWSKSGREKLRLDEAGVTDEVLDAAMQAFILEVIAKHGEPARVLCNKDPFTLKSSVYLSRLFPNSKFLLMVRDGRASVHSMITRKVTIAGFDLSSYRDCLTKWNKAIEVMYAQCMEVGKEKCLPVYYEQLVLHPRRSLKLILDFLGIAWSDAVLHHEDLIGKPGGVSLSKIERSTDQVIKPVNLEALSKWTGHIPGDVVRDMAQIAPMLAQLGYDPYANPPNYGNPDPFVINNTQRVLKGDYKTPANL

[3] = tested on: heparin sulfate 2-O sulfotransferase HS2ST; set-up: method as in PMID 29934491; settings: cited from earlier work
human TPST1 [4] = target: T1, human TPST1; assay: GST-CC4-tide tyrosine sulfation by TPST1, immunoblotting with monoclonal sulfotyrosine antibody; type: biochemical; settings: for Inhibition of GST-CC4-tide tyrosine sulfation by TPST1 (immunoblot, in words): GST-CC4-tide 1 µg, 10 µM PAPS, increasing concentrations of inhibitor
Procedure: After the assay, proteins were denatured in Laemmli sample buffer, heated at 95°C for 5 min and then analysed by SDS–PAGE with 10% (v/v) polyacrylamide gels. Gels were stained and destained using a standard Coomassie Brilliant Blue protocol. To evaluate protein sulfation and phosphorylation by immunoblotting, standard western blotting procedures were followed using monoclonal anti-sulfotyrosine antibody clone Sulfo-1C-A2 (Millipore) generated using a phage display procedure and sulfotyrosine selection peptide antigens in the presence of appropriate positive and negative controls, and modifications visualised using the ECL reagent.

[5] = substrate: Nc1ncnc2c1ncn2C1OC(COP(=O)(O)OS(=O)(=O)O)C(OP(=O)(O)O)C1O; assay: EZ Reader II microfluidic mobility-shift CC4-tide sulfation assay, TPST1; type: biochemical, human; settings: other: CC4-tide 2 µM, TPST1 0.1 µM, four independent experiments; pH 7.4
[6] = Fig 7C, TPST1 0.1 µM, CC4-tide, 30 min at 37°C, duplicate, read-out: TPST1 estimated IC50, PKIS inhibitors
[7] = Fig 8B, TPST1 0.1 µM pre-incubated with compound, read-out: TPST1 estimated IC50, RAF kinase inhibitors
[8] = Fig 5A, CC4-tide, 0.1 µM TPST1, absence of MgCl2, read-out: IC50 TPST1, panel of nucleotides

Molecule: Nc1nc(-c2ccc3c(c2)C(=Cc2cc(Br)c(O)c(Br)c2)C(=O)N3)cs1 [GW407323A]
- IC50 (human TPST1 [1]; [6]): 6 µM

Molecule: CNC(=O)c1cncc(/C=C/c2ccccc2Cl)c1 [GW445017X]
- inhibition at 20 µM (human TPST1 [1]): > 40%

Molecule: Nc1ncnc2c1ncn2[C@@H]1O[C@H](COP(=O)(O)OP(=O)(O)O)[C@@H](O)[C@H]1O [ADP, adenosine 5′-diphosphate]
- Thermal shift of TPST1 in the presence of Mg2+ ions (in words) (human TPST1 [2]): abolished
- Thermal shift of TPST1 (in words) (human TPST1 [2]): marked stabilisation
- Thermal shift of TPST2 in the presence of Mg2+ ions (in words) (human TPST2): abolished
- Thermal shift of TPST2 (in words) (human TPST2): marked stabilisation

Molecule: CNC(=O)c1cncc(/C=C/c2ccccc2C)c1 [GW445015X]
- inhibition at 20 µM (human TPST1 [1]): > 40%

Molecule: Cc1ccc(NC(=O)c2cccc(N(C)C)c2)cc1NC(=O)c1ccc(O)cc1 [ZM336372]
- TPST1 inhibition at 400 μM (human TPST1 [1]; TPST1 0.1 µM, duplicate): essentially complete TPST1 inhibition
- IC50 (human TPST1 [1]; [7]): 253 µM

Molecule: CC(=O)SCCNC(=O)CCNC(=O)[C@H](O)C(C)(C)COP(=O)(O)OP(=O)(O)OC[C@H]1O[C@@H](n2cnc3c(N)ncnc32)[C@H](O)[C@@H]1OP(=O)(O)O [acetyl CoA]
- Thermal shift of TPST1 (in words) (human TPST1 [2]): marked stabilisation
- Thermal shift of TPST2 (in words) (human TPST2): marked stabilisation

Molecule: O=C1Nc2ccc(C(=O)c3ccco3)cc2C1=Cc1cc(Cl)c(O)c(Cl)c1 [GW406108X]
- IC50 (human TPST1 [1]; [6]): 16 µM
- TPST1 DSF screen of PKIS, rank of hit (human TPST1 [2]; 20 µM compound, 4% DMSO, hit cut-off ΔTm ± 0.5°C): top compound

Molecule: CCCS(=O)(=O)Nc1ccc(F)c(C(=O)c2c[nH]c3ncc(Cl)cc23)c1F [PLX-4720]
- IC50 (human TPST1 [1]; [7]): > 400 µM

Molecule: O=C1Nc2ccc(-c3cccnc3)cc2C1=Cc1cc(Br)c(O)c(Br)c1 [GW429374A]
- IC50 (human TPST1 [1]; [6]): 9.8 µM

Molecule: Nc1ncnc2c1ncn2[C@@H]1O[C@H](COP(=O)(O)OP(=O)(O)OP(=O)(O)O)[C@@H](O)[C@H]1O [ATP, adenosine 5′-triphosphate]
- IC50 (human TPST1 [1]; [8]): 379 µM

Molecule: O=C(O)C1=CC(=C(c2ccc(O)c(C(=O)O)c2)c2ccc(O)c(C(=O)O)c2)C=CC1=O [Aurintricarboxylic acid, aurintricarboxylic acid]
- HS2ST inhibition in vitro (in words) [3]: inhibitory activity

Molecule: CNC(=O)c1cc(Oc2ccc(NC(=O)Nc3ccc(Cl)c(C(F)(F)F)c3)cc2)ccn1 [Sorafenib, sorafenib]
- TPST1 inhibition at 400 μM (human TPST1 [1]; TPST1 0.1 µM, duplicate): essentially complete TPST1 inhibition
- IC50 (human TPST1 [1]; [7]): 119 µM

Molecule: CC(C)(C)c1nc(-c2cccc(NS(=O)(=O)c3c(F)cccc3F)c2F)c(-c2ccnc(N)n2)s1 [Dabrafenib, dabrafenib]
- TPST1 inhibition at 400 μM (human TPST1 [1]; TPST1 0.1 µM, duplicate): essentially complete TPST1 inhibition
- IC50 (human TPST1 [1]; [7]): 269 µM

Molecule: Nc1nc2c(ncn2[C@@H]2O[C@H](COP(=O)(O)OP(=O)(O)OP(=O)(O)O)[C@@H](O)[C@H]2O)c(=O)[nH]1 [GTP, guanosine 5′-triphosphate]
- Thermal shift of TPST1 in the presence of Mg2+ ions (in words) (human TPST1 [2]): abolished
- Thermal shift of TPST1 (in words) (human TPST1 [2]): marked stabilisation
- Thermal shift of TPST2 in the presence of Mg2+ ions (in words) (human TPST2): abolished
- Thermal shift of TPST2 (in words) (human TPST2): marked stabilisation

Molecule: CC(C)(COP(=O)(O)OP(=O)(O)OC[C@H]1O[C@@H](n2cnc3c(N)ncnc32)[C@H](O)[C@@H]1O)[C@@H](O)C(=O)NCCC(=O)NCCS [dephospho-CoA, 3′-dephosphoCoA]
- Sensitivity of TPST1 inhibition to the concentration of PAPS (human TPST1 [1]; CC4-tide): largely insensitive
- IC50 (human TPST1 [1]; [8]): 166 µM
- Thermal shift of TPST1 (in words) (human TPST1 [2]): unable to induce thermal shifts
- Thermal shift of TPST2 (in words) (human TPST2): unable to induce thermal shifts

Molecule: O=C1Nc2ccc(I)cc2C1=Cc1cc(Br)c(O)c(Br)c1 [GW305074X]
- Inhibition of GST-CC4-tide tyrosine sulfation by TPST1 (immunoblot, in words) (human TPST1 [4]): low-micromolar inhibitor
- IC50 (human TPST1 [1]; [6]): ~5 µM

Molecule: CCCS(=O)(=O)Nc1ccc(F)c(C(=O)c2c[nH]c3ncc(-c4ccc(Cl)cc4)cc23)c1F [Vemurafenib, vemurafenib]
- TPST1 inhibition at 400 μM (human TPST1 [1]; TPST1 0.1 µM, duplicate): essentially complete TPST1 inhibition
- IC50 (human TPST1 [1]; [7]): 42.9 µM and ~40 µM

Molecule: Cc1ccc(C(=O)Nc2ccc(S(=O)(=O)O)c3cc(S(=O)(=O)O)cc(S(=O)(=O)O)c23)cc1NC(=O)c1cccc(NC(=O)Nc2cccc(C(=O)Nc3cc(C(=O)Nc4ccc(S(=O)(=O)O)c5cc(S(=O)(=O)O)cc(S(=O)(=O)O)c45)ccc3C)c2)c1 [Suramin, suramin]
- HS2ST inhibition in vitro (in words) [3]: inhibitory activity

Molecule: Nc1ncnc2c1ncn2[C@@H]1O[C@H](COP(=O)(O)O)[C@@H](O)[C@H]1O [AMP, adenosine 5′-monophosphate]
- Thermal shift of TPST1 (in words) (human TPST1 [2]): lack of significant thermal shift
- Thermal shift of TPST2 (in words) (human TPST2): lack of significant thermal shift

Molecule: Cc1cc(-c2ccco2)cc(C)c1/C=C/c1cncc(-c2nn[nH]n2)c1 [GW458344A]
- inhibition at 20 µM (human TPST1 [1]): > 40%

Molecule: Cn1c(Nc2ccc(C(F)(F)F)cc2)nc2cc(Oc3ccnc(-c4ncc(C(F)(F)F)[nH]4)c3)ccc21 [RAF265]
- Inhibition of GST-CC4-tide tyrosine sulfation by TPST1 (immunoblot, in words) (human TPST1 [4]): dose-dependent inhibition
- Mode of TPST1 inhibition with respect to PAPS (immunoblot densitometry) (human TPST1 [4]; GST-CC4-tide, increasing PAPS concentration): partially competitive mode of inhibition with PAPS
- TPST1 inhibition at 400 μM (human TPST1 [1]; TPST1 0.1 µM, duplicate): essentially complete TPST1 inhibition
- IC50 (human TPST1 [1]; [7]): 6.5 µM
- HS2ST inhibition in vitro (in words) [3]: did not inhibit HS2ST at any concentration tested

Molecule: CC(C)(COP(=O)(O)OP(=O)(O)OC[C@H]1O[C@@H](n2cnc3c(N)ncnc32)[C@H](O)[C@@H]1OP(=O)(O)O)[C@@H](O)C(=O)NCCC(=O)NCCS [CoA, coenzyme A]
- Sensitivity of TPST1 inhibition to the concentration of PAPS (human TPST1 [1]; CC4-tide): highly sensitive
- IC50 (human TPST1 [1]; [8]): 87 µM and 87.3 µM
- Thermal shift of TPST1 (in words) (human TPST1 [2]): marked stabilisation
- ΔTm TPST1 (human TPST1 [2]): ~11 °C
- Thermal shift of TPST2 (in words) (human TPST2): marked stabilisation

Molecule: Nc1ncnc2c1ncn2C1OC(COP(=O)(O)O)C(OP(=O)(O)O)C1O (stereo not drawn) [PAP, adenosine 3′–5′-diphosphate]
- Sensitivity of TPST1 inhibition to the concentration of PAPS (human TPST1 [1]; CC4-tide): highly sensitive
- IC50 (human TPST1 [1]; [8]): 1.5 µM
- Thermal shift of TPST1 (in words) (human TPST1 [2]): marked stabilisation
- ΔTm TPST1 (human TPST1 [2]): ~10 °C
- Thermal shift of TPST2 (in words) (human TPST2): marked stabilisation

Molecule: COC(=O)c1ccc2c(c1)C(=Cc1cc(Br)c(O)c(Br)c1)C(=O)N2 [GW405841X]
- IC50 (human TPST1 [1]; [6]): > 40 µM

B1: human TPST1 (Homo sapiens) (protein)
chain: KLESTRTTVRTGLDLKANKTFAYHKDMPLIFIGGVPRSGTTLMRAMLDAHPDIRCGEETRVIPRILALKQMWSRSSKEKIRLDEAGVTDEVLDSAMQAFLLEIIVKHGEPAPYLCNKDPFALKSLTYLSRLFPNAKFLLMVRDGRASVHSMISRKVTIAGFDLNSYRDCLTKWNRAIETMYNQCMEVGYKKCMLVHYEQLVLHPERWMRTLLKFLQIPWNHSVLHHEEMIGKAGGVSLSKVERSTDQVIKPVNVGALSKWVGKIPPDVLQDMAVIAPMLAKLGYDPYANPPNYGKPDPKIIENTRRVYKGEFQLPDFL
notes: human TPST1 (residues Lys43–Leu360) and TPST2 (residues Gly43–Leu359) enzymes lacking the transmembrane domains; made in house; host or cells: E. coli BL21 (DE3) pLysS
- Km [5]: 6.6 ± 1.9 µM
